Key:
sows [1] = test: Ovulation detection by transrectal ultrasonography (Examples 1-7); assay type: in vivo, swine; settings: for OV48 (%): 48 h after treatment, OG, LS means
Description: Approximately 120 parity one to seven sows (30 sows within each treatment group) were used to obtain ovulation and reproductive tract data. All sows were of the same genotype (PIC C22). Following 16 to 24 days of lactation, sows were blocked by length of lactation and parity and randomly assigned to one of four treatments: 1) a placebo group, receiving a placebo gel at 96±2 hours post-weaning and a single AI 24 hours later, 2) triptorelin gel at 96±2 hours post-weaning and AI 18 to 20 hours later. 3) triptorelin gel at 96±2 hours post-weaning and AI 24 to 26 hours later, and 4) triptorelin gel at 96±2 hours post-weaning and AI 30 to 32 hours later. The placebo formulation was identical to the active formulation but without the hormone being present. All treatments were deposited into the anterior vagina within 2 cm of the cervix. Follicular development and ovulation was monitored via real time ultrasound at 24, 32, 40, 48, and 56 hours after treatment. Thirty (30) days after insemination, all sows were slaughtered and reproductive tracts obtained. Pregnancy rates and embryo survival were determined. Triptorelin was administered at 96 hours (±2 hr) post-weaning as a single 2 mL dose deposited approximately 1-2 cm posterior to the cervix with a modified artificial insemination catheter. Weaning of sows occurred between 10 a.m. and noon on Day (O). The timing of the insemination for each group of sows was given as directed in the protocol. Those sows scheduled to be inseminated 18 hours following administration of triptorelin were generally inseminated between 6:00 a.m. and 8:00 a.m. the following day, those sows scheduled to be inseminated 24 hours following administration of triptorelin were generally inseminated between noon and 2:00 p.m. the following day and those sows scheduled to be inseminated 30 hours following administration of triptorelin were generally inseminated between 6:00 p.m. and 8:00 p.m. the following day. The single insemination for each sow was performed as they were normally done at the farm. […] Ultrasonography was performed at 24 hr (±1.5 hour) after treatment on Day 5 and again at 8:00 p.m. (±1.5 hour) on Day 5. On Day 6 transrectal ultrasonography was performed at 4:00 a.m. (±1 hour), noon (±1 hr) and 8:00 p.m. (±1 hr) until ovulation was complete or until the 8:00 p.m. ultrasonography on Day 6 (the 56 hour mark from the animals treated at 96 hours post-weaning) whichever came first. An Aloka 500 ultrasound machine was used for this purpose, with a 7.5 MHz linear array transducer attached to a fixed-angle PVC stabilizing rod to facilitate insertion into the rectum. The transducer and PVC rod were coated with a gynecological lubricant and gently inserted into the rectum until the ovaries could be visualized, one at a time. The diameters of the three largest follicles were to be recorded (to the nearest 0.1 mm) at each scanning. A sow was declared to have ovulated when the number of large follicles 6.5 mm) fell to less than 3. […] For all analyses, the models contained the fixed effects of treatment (placebo controls inseminated 24 hours after treatment, triptorelin treated sows inseminated 18 hours after treatment, triptorelin treated sows inseminated 24 hours after treatment and triptorelin treated sows inseminated 30 hours after treatment) and replicate. The records for sow parity and lactation length were included as covariates. First order interaction of treatment and replicate was tested and removed when non-significant. […]

sows [2] = test: Pregnancy rate and litter size at slaughter 30 days after insemination (Examples 1-7); assay type: in vivo, swine; settings: OG, LS means; for Pregnant (%): pregnant at slaughter of all sows allotted
Description: Approximately 120 parity one to seven sows (30 sows within each treatment group) were used to obtain ovulation and reproductive tract data. All sows were of the same genotype (PIC C22). Following 16 to 24 days of lactation, sows were blocked by length of lactation and parity and randomly assigned to one of four treatments: 1) a placebo group, receiving a placebo gel at 96±2 hours post-weaning and a single AI 24 hours later, 2) triptorelin gel at 96±2 hours post-weaning and AI 18 to 20 hours later. 3) triptorelin gel at 96±2 hours post-weaning and AI 24 to 26 hours later, and 4) triptorelin gel at 96±2 hours post-weaning and AI 30 to 32 hours later. The placebo formulation was identical to the active formulation but without the hormone being present. All treatments were deposited into the anterior vagina within 2 cm of the cervix. Follicular development and ovulation was monitored via real time ultrasound at 24, 32, 40, 48, and 56 hours after treatment. Thirty (30) days after insemination, all sows were slaughtered and reproductive tracts obtained. Pregnancy rates and embryo survival were determined. Triptorelin was administered at 96 hours (±2 hr) post-weaning as a single 2 mL dose deposited approximately 1-2 cm posterior to the cervix with a modified artificial insemination catheter. Weaning of sows occurred between 10 a.m. and noon on Day (O). The timing of the insemination for each group of sows was given as directed in the protocol. Those sows scheduled to be inseminated 18 hours following administration of triptorelin were generally inseminated between 6:00 a.m. and 8:00 a.m. the following day, those sows scheduled to be inseminated 24 hours following administration of triptorelin were generally inseminated between noon and 2:00 p.m. the following day and those sows scheduled to be inseminated 30 hours following administration of triptorelin were generally inseminated between 6:00 p.m. and 8:00 p.m. the following day. The single insemination for each sow was performed as they were normally done at the farm. […] There was a tendency (p=0.09) for triptorelin treated sows inseminated at 18 hours (12.4 fetuses) and at 24 hours (11.8 fetuses) post treatment to have a higher number of healthy fetuses than triptorelin treated sows inseminated at 30 hours (8.6) post treatment and for vehicle treated sows inseminated at 24 hours (8.6) following treatment. […] For all analyses, the models contained the fixed effects of treatment (placebo controls inseminated 24 hours after treatment, triptorelin treated sows inseminated 18 hours after treatment, triptorelin treated sows inseminated 24 hours after treatment and triptorelin treated sows inseminated 30 hours after treatment) and replicate. The records for sow parity and lactation length were included as covariates. First order interaction of treatment and replicate was tested and removed when non-significant. Differences between treatments were tested on least squares means estimates using the T test at P<0.05.

CC(C)C[C@H](NC(=O)[C@@H](Cc1c[nH]c2ccccc12)NC(=O)[C@H](Cc1ccc(O)cc1)NC(=O)[C@H](CO)NC(=O)[C@H](Cc1c[nH]c2ccccc12)NC(=O)[C@H](Cc1c[nH]cn1)NC(=O)[C@@H]1CCC(=O)N1)C(=O)N[C@@H](CCCNC(=N)N)C(=O)N1CCC[C@H]1C(=O)NCC(N)=O [triptorelin, pGlu-His-Trp-Ser-Tyr-D-Trp-Leu-Arg-Pro-Gly-NH2]
sows ovulating during their most synchronous 24 hr period (sows [1]; 120 to 144 hr after weaning, triptorelin treated sows): 70-77% | OV48 (%) (sows [1]; AI 18 h): 74.0% | OV48 (%) (sows [1]; AI 24 h): 77.0% | OV48 (%) (sows [1]; AI 30 h): 76.8% | percentage of sows ovulating by 56 hours after treatment (sows [1]; average of triptorelin treated sows): 80.4% | Number of Healthy Fetuses (sows [2]; AI 18 h): 12.4 | Number of Healthy Fetuses (sows [2]; AI 24 h): 11.8 | Number of Healthy Fetuses (sows [2]; AI 30 h): 8.6 | Pregnant (%) (sows [2]; AI 18 h): 74.4% | Pregnant (%) (sows [2]; AI 24 h): 68.1% | Pregnant (%) (sows [2]; AI 30 h): 62.3%
